According to patent publication US20120148547A1, “COMBINATION OF VITAMIN E AND BETA-GLYCOSPHINGOLIPIDS IN COMPOSITIONS AND METHODS FOR PREVENTING AND TREATING HEPATIC DISORDERS” (Hadasit Medical Reasearch Services & Development Ltd., priority 2009, published 2012):

Key:
[1] = tested on: acetaminophen-induced liver injury; assay: Acetaminophen-induced liver injury in mice treated with GC and vitamins, serum ALT and AST (Example 2); format: in vivo, Male C57B1/6 mice; details: 24 hr after acetaminophen; vitamins by gavage, with or without 100 μg GC two hours before acetaminophen
Experimental: Male C57B1/6 mice (11-12 weeks old) were obtained from Harlan Laboratories (Jerusalem, Israel) and maintained in the Animal Core of the Hadassah-Hebrew University Medical School. β-glucosylceramide (GC) was purchased from Avanti Polar Lipids (Alabaster, Ala., USA). […] Acetaminophen Sigma (cat. # A7085), was dissolved in a mixture of 30% Cremophor EL (Sigma, Rehovot, Israel) and ethanol (1:1) in DDW (Di distilled water). Mice were tested for serum Alanine transaminase (ALT) and Aspartate aminotransferase (AST) at 24 hours after acetaminophen administration. Serum AST and ALT levels were measured by an automatic analyzer. Mice of all groups (eight per group) were fasted for eight hours before oral administration of acetaminophen and for additional four hours after administration. […] Animals were sacrificed after 24 hours, and liver damage was assessed in all groups by examining serum levels of ALT, AST, GSH and TNF-α.

hepatic NKT cells = assay: Flow cytometry of hepatic NKT lymphocytes (CD3+NK1.1+) after acetaminophen; format: in vivo, mice; details: pretreatment before acetaminophen
Experimental: For intrahepatic lymphocytes, livers were first crushed through a stainless mesh (size 60, Sigma) and cell suspension was placed in a 50-mL tube for 5 min to pellet the cell debris. Ten milliliters of Lymphoprep (Ficoll, Axis-Shield PoC AS, Oslo, Norway) was slowly placed under the same volume of cell suspension in 50-mL tubes. The tubes were then centrifuged at 1800 rpm for 18 min. Cells at the interface were collected and transferred to new tubes, which were then centrifuged at 1800 rpm for 10 min, to obtain a cell pellet depleted of hepatocytes in a final volume of 250 μl. Approximately 1×10^6 cells/mouse liver were recovered.
Flow cytometry was performed following lymphocyte isolation using 1×10^6 lymphocytes in 100 μl PBS. […] Pacigic Blue anti mouse CD4, FITC-anti mouse CD8 subsets were also used ((eBioscience, USA). For intracellular staining we used PE-anti mouse CD25 and PE-Cy7 anti mouse FOXp3 (eBioscience, USA). Cells were incubated for 30 min at 4° C. in the dark, and washed and resuspended in 200 μl PBS. Analytical cell sorting was performed on 1×10^4 cells from each group using a fluorescence-activated cell sorter (FACSTAR plus, Becton Dickinson). Only live cells were counted and unstained cells served as controls for background fluorescence. Gates were set on forward- and side-scatters to exclude dead cells and red blood cells. […]

[2] = tested on: acetaminophen-induced liver injury; assay: Acetaminophen-induced liver injury in mice treated with GC, serum ALT and AST (Example 1); format: in vivo, Male C57B1/6 mice; parameters: ALT levels: unit not given here; details: for ALT levels: p<0.001; for AST levels: control group A 6634, p<0.04
Experimental: Male C57B1/6 mice (11-12 weeks old) were obtained from Harlan Laboratories (Jerusalem, Israel) and maintained in the Animal Core of the Hadassah-Hebrew University Medical School. β-glucosylceramide (GC) was purchased from Avanti Polar Lipids (Alabaster, Ala., USA). Glycolipids (3.3 mg/ml) were dissolved in a mixture of 30% Cremophor EL (Sigma, Rehovot, Israel) and ethanol (1:1, C:E) in PBS. Acetaminophen Sigma (cat. # A7085), was dissolved in a mixture of 30% Cremophor EL (Sigma, Rehovot, Israel) and ethanol (1:1) in DDW (Di distilled water). […] Serum AST and ALT levels were measured by an automatic analyzer. Beta glycolipides were previously shown by the present inventors as having immunomodulatory effects. […] The inventors therefore next examined whether such effect may also enhance the glutathione system and thereby ameliorate hepatic injury induced by drugs such as acetaminophen. The effect of GC on acetaminophen-induced liver injury was evaluated by examination of liver enzyme (ALT and AST). Three groups of mice, 15 animals per group, were studied. Mice of all groups were fasted for eight hours before oral administration of acetaminophen and for additional four hours after administration. Mice in all groups were administered orally (PO) with 10 mg/330 μl acetaminophen (in C:E gavage administration). In addition, mice were administered with 100 μg β-glucosylceramide (β-GC, in 30 μl of C:E) two hours before administration of acetaminophen (Group B) and every two hours after acetaminophen administration (Group C), Mice in control group A were treated only with oral PBS.

For `O=C1O[C@H]([C@@H](O)CO)C(O)=C1O` [vitamin C, L-Ascorbic acid], the “effect on ALT levels (FIG. 4)” value [1] was “negligible effect”.
In the case of `Cc1c(C)c2c(c(C)c1O)CC[C@@](C)(CCC[C@H](C)CCC[C@H](C)CCCC(C)C)O2` [vitamin E, α-Tocopherol], the “change in hepatic NKT cells” value (hepatic NKT cells) is reported as “became significant” and the “effect on ALT levels (FIG. 4)” value [1] is reported as “negligible effect”.
β-glucosylceramide [GC] was tested, and the “change in hepatic NKT cells” value (hepatic NKT cells) was “small increase”, the ALT levels ([2]; 12 hr after acetaminophen 10 mg PO, 100 μg GC every two hours after acetaminophen (Group C), control group A 505) was 364 and the ALT levels ([2]; 12 hr after acetaminophen 10 mg PO, 100 μg GC two hours before acetaminophen (Group B), control group A 505) was 332. It also gave an AST levels ([2]; 24 hr after acetaminophen, GC every two hours after acetaminophen (Group C)) of 4029, an ALT levels ([2]; 24 hr after acetaminophen, GC every two hours after acetaminophen (Group C), control group A 12150) of 5034 and an AST levels ([2]; 24 hr after acetaminophen, GC two hours before acetaminophen (Group B)) of 3650. The ALT levels ([2]; 24 hr after acetaminophen, GC two hours before acetaminophen (Group B), control group A 12150) was 5222.
